From US20260356820A1, “Pyrrolidine and Imidazolidine Based DNA Polymerase Theta Inhibitors and Use Thereof” (Thomas Jefferson University, priority 2022, published 2026)
Read-outs that look alike come from different tables or passages of the source.

Key:
[1] = target: T1, human Polq polymerase domain (Homo sapiens, UniProt O75417); assay: Cy5 fluorescence assay of Polq polymerase domain inhibition; format: biochemical
T1 sequence (O75417 1792-2590): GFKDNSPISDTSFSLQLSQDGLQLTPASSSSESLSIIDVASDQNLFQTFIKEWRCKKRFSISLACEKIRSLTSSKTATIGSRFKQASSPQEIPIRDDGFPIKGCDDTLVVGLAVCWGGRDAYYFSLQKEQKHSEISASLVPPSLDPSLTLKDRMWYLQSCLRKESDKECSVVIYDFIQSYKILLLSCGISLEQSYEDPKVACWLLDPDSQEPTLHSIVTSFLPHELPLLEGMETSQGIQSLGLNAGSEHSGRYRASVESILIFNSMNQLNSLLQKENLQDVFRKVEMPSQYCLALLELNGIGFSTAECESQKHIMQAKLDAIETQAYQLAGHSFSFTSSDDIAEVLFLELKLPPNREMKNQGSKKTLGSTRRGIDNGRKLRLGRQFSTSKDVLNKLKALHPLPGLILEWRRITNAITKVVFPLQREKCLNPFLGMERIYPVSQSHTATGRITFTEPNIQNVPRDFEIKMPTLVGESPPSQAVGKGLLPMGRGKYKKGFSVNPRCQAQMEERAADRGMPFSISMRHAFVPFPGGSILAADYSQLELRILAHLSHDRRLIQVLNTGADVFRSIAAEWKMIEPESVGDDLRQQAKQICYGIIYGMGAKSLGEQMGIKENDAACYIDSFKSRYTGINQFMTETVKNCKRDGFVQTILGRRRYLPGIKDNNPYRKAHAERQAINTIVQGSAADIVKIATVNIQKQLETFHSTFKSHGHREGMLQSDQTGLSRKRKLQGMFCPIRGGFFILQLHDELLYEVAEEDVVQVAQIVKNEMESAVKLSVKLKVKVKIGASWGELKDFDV

[2] = tested on: cell types harboring BRCA2 mutations (PE01, VC8, CAPAN-1; BRCA2-null HCT116 and DLD1); assay: Synergy with PARP inhibitors, clonogenic survival of BRCA2-mutated/null cells; format: cell-based; conditions: olaparib as PARP inhibitor, Combenefit software analysis
Text: FIG. 3A depicts a representative scatter plot and synergy plot showing clongenic survival of HCT116 BRCA2-null cells treated with varying concentrations of olaparib with DMSO or various concentrations of Example 6. FIG. 3B depicts a representative scatter plot synergy plot showing clongenic survival of DLD1 BRCA2-null cells treated with varying concentrations of olaparib with DMSO or various concentrations of Example 6. FIG. 3C depicts a representative scatter plot synergy plot showing clongenic survival of PE01 cells treated with varying concentrations of olaparib with DMSO or various concentrations of Example 6. FIG. 3D depicts a representative scatter plot synergy plot showing clongenic survival of VC8 cells treated with varying concentrations of olaparib with DMSO or various concentrations of Example 6. FIG. 3E depicts a representative scatter plot synergy plot showing clongenic survival of CAPAN-1 cells treated with varying concentrations of olaparib with DMSO or various concentrations of Example 6. FIG. 3F depicts a representative scatter plot showing clongenic survival of MDA-MB-231 cells following treatment with various concentrations of talazoparib and DMSO or various concentrations of Example 6 and representative images of colony plates. For FIG. 3A through FIG. 3F, data are presented as mean±SEM; n=3; p-values calculated by two-sample t test. […]

[3] = 5 nM Polq polymerase domain (residues 1792-2590), 60 nM primer-template, 50 uM dNTPs, 37 °C, 18 min, read-out: IC50 (nM) Polq

SMILES	IC50 [1] [nM]	synergy with PARP inhibitors (clonogenic survival) [2]	IC50 [1, 3] [nM]
CN(C(=O)Oc1c(N2CCN(CCO)C2=O)cc(C(F)(F)F)cc1C(F)(F)F)c1ccc(F)cc1 [Example 6, 2,4-bis(trifluoromethyl)-6-(3-(2-hydroxyethyl)-2-oxoimidazolidin-1-yl)phenyl (4-fluorophenyl)(methyl)carbamate]	3.2	Synergy	–
[2H]C([2H])([2H])N(C(=O)Oc1c(N2CCN(C[C@H](O)CN(C)C)C2=O)cc(C(F)(F)F)cc1C(F)(F)F)c1ccc(F)cc1 [Example 50, (R)-2-(3-(3-(dimethylamino)-2-hydroxypropyl)-2-oxoimidazolidin-1-yl)-4,6-bis(trifluoromethyl)phenyl (4-fluorophenyl)(methyl-d3)carbamate]	–	–	5.1
CN(C(=O)Cc1c(N2CCNC2=O)cc(C(F)(F)F)cc1C(F)(F)F)c1ccc(F)cc1 [Example 51, N-(4-fluorophenyl)-N-methyl-2-(2-(2-oxoimidazolidin-1-yl)-4,6-bis(trifluoromethyl)phenyl)acetamide]	–	–	117
CN(C(=O)Oc1c(N2CCNC2=O)cc(C(F)(F)F)cc1C(F)(F)F)c1ccc(F)cn1 [Example 52, 2-(2-oxoimidazolidin-1-yl)-4,6-bis(trifluoromethyl)phenyl (5-fluoropyridin-2-yl)(methyl)carbamate]	11.4	–	–
Cc1nc(N(C)C(=O)Oc2c(N3CCNC3=O)cc(C(F)(F)F)cc2C(F)(F)F)ccc1F [Example 53, 2-(2-oxoimidazolidin-1-yl)-4,6-bis(trifluoromethyl)phenyl (5-fluoro-6-methylpyridin-2-yl)(methyl)carbamate]	2.7	–	–
CN(C(=O)Oc1c(N2CCN(CCO)C2=O)cc(Cl)cc1C(F)(F)F)c1ccc(F)cc1 [Example 54, 4-chloro-2-(3-(2-hydroxyethyl)-2-oxoimidazolidin-1-yl)-6-(trifluoromethyl)phenyl (4-fluorophenyl)(methyl)carbamate]	68	–	–
CN(C(=O)Oc1c(Cl)cc(Cl)cc1N1CCN(CCO)C1=O)c1ccc(F)cc1 [Example 55, 2,4-dichloro-6-(3-(2-hydroxyethyl)-2-oxoimidazolidin-1-yl)phenyl (4-fluorophenyl)(methyl)carbamate]	133	–	–
